Test results: ChEMBL document CHEMBL4715821, “Discovery of 4-ethoxy-7H-pyrrolo[2,3-d]pyrimidin-2-amines as potent, selective and orally bioavailable LRRK2 inhibitors” (Bioorg Med Chem Lett, 2018)

Tests used:
[1] = target: T1, Interleukin-1 receptor-associated kinase 4 (Homo sapiens) (UniProt Q9NWZ3); assay: Inhibition of wild-type human partial length IRAK4 (M1 to S460 residues) expressed in mammalian expression system assessed as residual activity at 1 uM by Kinomescan method relative to control
T1 sequence (whole entry): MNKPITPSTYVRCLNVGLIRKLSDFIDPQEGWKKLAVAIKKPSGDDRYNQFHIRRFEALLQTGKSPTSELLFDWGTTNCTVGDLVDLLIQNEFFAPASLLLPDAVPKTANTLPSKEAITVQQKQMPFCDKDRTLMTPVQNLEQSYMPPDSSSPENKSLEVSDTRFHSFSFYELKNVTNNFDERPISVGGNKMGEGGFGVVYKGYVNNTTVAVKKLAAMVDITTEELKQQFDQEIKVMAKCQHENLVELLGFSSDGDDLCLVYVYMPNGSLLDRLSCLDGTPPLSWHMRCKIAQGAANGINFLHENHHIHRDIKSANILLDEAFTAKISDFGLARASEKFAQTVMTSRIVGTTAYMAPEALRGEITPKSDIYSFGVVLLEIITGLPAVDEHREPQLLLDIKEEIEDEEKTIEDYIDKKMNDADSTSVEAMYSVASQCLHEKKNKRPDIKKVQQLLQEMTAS

[2] = target: Tyrosine-protein kinase ABL2 (Homo sapiens) (UniProt P42684); assay: Inhibition of wild-type human ABL2 (A248 to G542 residues) expressed in bacterial expression system assessed as residual activity at 1 uM by Kinomescan method relative to control
[3] = target: ALK tyrosine kinase receptor (Homo sapiens) (UniProt Q9UM73); assay: Inhibition of wild-type human partial length ALK (I1088 to E1409 residues) expressed in mammalian expression system assessed as residual activity at 1 uM by Kinomescan method relative to control
[4] = target: CDK1/Cyclin A (Homo sapiens) (UniProt P06493+P20248); assay: Inhibition of wild-type human full length CDK1 (M1 to M297 residues) /Cyclin A expressed in mammalian expression system assessed as residual activity at 1 uM by Kinomescan method relative to control
[5] = target: Cyclin-dependent kinase 7/ cyclin H (Homo sapiens) (UniProt P51946+P50613); assay: Inhibition of wild-type human full length CDK7 (M1 to L344 residues)/cyclin H expressed in mammalian expression system assessed as residual activity at 1 uM by Kinomescan method relative to control
[6] = target: Casein kinase I isoform delta (Homo sapiens) (UniProt P48730); assay: Inhibition of CK1D (unknown origin) assessed as residual activity at 1 uM by Kinomescan method relative to control
[7] = target: Casein kinase II subunit alpha (Homo sapiens) (UniProt P68400); assay: Inhibition of CK2alpha (unknown origin) assessed as residual activity at 1 uM by Kinomescan method relative to control
[8] = target: Glycogen synthase kinase-3 alpha (Homo sapiens) (UniProt P49840); assay: Inhibition of wild-type human full length GSK3A (M1 to S483 residues) expressed in bacterial expression system assessed as residual activity at 1 uM by Kinomescan method relative to control
[9] = target: Serine/threonine-protein kinase haspin (Homo sapiens) (UniProt Q8TF76); assay: Inhibition of wild-type human partial length HASPIN (I452 to K798 residues) expressed in mammalian expression system assessed as residual activity at 1 uM by Kinomescan method relative to control
[10] = target: Mitogen-activated protein kinase 8 (Homo sapiens) (UniProt P45983); assay: Inhibition of wild-type human full length JNK1 (M1 to Q384 residues) expressed in mammalian expression system assessed as residual activity at 1 uM by Kinomescan method relative to control
[11] = target: Mitogen-activated protein kinase 10 (Homo sapiens) (UniProt P53779); assay: Inhibition of wild-type human partial length JNK3 (V28 to Q422 residues) expressed in mammalian expression system assessed as residual activity at 1 uM by Kinomescan method relative to control
[12] = target: Tyrosine-protein kinase Lck (Homo sapiens) (UniProt P06239); assay: Inhibition of wild-type human partial length LCK (R207 to P509 residues) expressed in bacterial expression system assessed as residual activity at 1 uM by Kinomescan method relative to control
[13] = target: Serine/threonine-protein kinase Nek2 (Homo sapiens) (UniProt P51955); assay: Inhibition of wild-type human partial length NEK2 (M1 to K309 residues) expressed in bacterial expression system assessed as residual activity at 1 uM by Kinomescan method relative to control
[14] = target: Mitogen-activated protein kinase 14 (Homo sapiens) (UniProt Q16539); assay: Inhibition of wild-type human full length p38-alpha (M1 to S360 residues) expressed in bacterial expression system assessed as residual activity at 1 uM by Kinomescan method relative to control
[15] = target: Ribosomal protein S6 kinase beta-1 (Homo sapiens) (UniProt P23443); assay: Inhibition of wild-type human partial length RPS6KB1 (M1 to S421 residues) expressed in mammalian expression system assessed as residual activity at 1 uM by Kinomescan method relative to control
[16] = target: Protein kinase C beta type (Homo sapiens) (UniProt P05771); assay: Inhibition of PKCbeta1 (unknown origin) assessed as residual activity at 1 uM by Kinomescan method relative to control
[17] = target: Proto-oncogene tyrosine-protein kinase receptor Ret (Homo sapiens) (UniProt P07949); assay: Inhibition of wild-type human partial length RET (E713 to D1014 residues) expressed in bacterial expression system assessed as residual activity at 1 uM by Kinomescan method relative to control
[18] = target: Ribosomal protein S6 kinase alpha-1 (Homo sapiens) (UniProt Q15418); assay: Inhibition of wild-type human partial length N-terminal RSK1 kinase domain 1 (M1 to E388 residues) expressed in bacterial expression system assessed as residual activity at 1 uM by Kinomescan method relative to control
[19] = target: Serine/threonine-protein kinase Sgk2 (Homo sapiens) (UniProt Q9HBY8); assay: Inhibition of wild-type human partial length SGK2 (L54 to C427 residues) expressed in mammalian expression system assessed as residual activity at 1 uM by Kinomescan method relative to control
[20] = target: Serine/threonine-protein kinase tousled-like 2 (Homo sapiens) (UniProt Q86UE8); assay: Inhibition of wild-type human partial length TLK2 (E424 to N749 residues) expressed in bacterial expression system assessed as residual activity at 1 uM by Kinomescan method relative to control
[21] = target: Testis-specific serine/threonine-protein kinase 2 (Homo sapiens) (UniProt Q96PF2); assay: Inhibition of TSSK2 (unknown origin) assessed as residual activity at 1 uM by Kinomescan method relative to control
[22] = target: Serine/threonine-protein kinase MRCK gamma (Homo sapiens) (UniProt Q6DT37); assay: Inhibition of wild-type human partial length DMPK2 (S46 to S408 residues) expressed in bacterial expression system assessed as residual activity at 1 uM by Kinomescan method relative to control
[23] = target: Testis-specific serine/threonine-protein kinase 6 (Homo sapiens) (UniProt Q9BXA6); assay: Inhibition of SSTK (unknown origin) assessed as residual activity at 1 uM by Kinomescan method relative to control
Sequence of Testis-specific serine/threonine-protein kinase 6 (Homo sapiens) (Q9BXA6 whole entry): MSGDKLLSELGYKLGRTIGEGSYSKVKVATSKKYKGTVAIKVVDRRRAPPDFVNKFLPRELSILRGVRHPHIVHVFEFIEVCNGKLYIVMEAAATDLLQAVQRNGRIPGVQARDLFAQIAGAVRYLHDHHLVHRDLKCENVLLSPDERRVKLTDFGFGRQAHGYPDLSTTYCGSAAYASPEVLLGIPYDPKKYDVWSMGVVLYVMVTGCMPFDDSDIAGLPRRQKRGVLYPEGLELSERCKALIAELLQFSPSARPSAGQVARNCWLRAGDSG

Sequence of Serine/threonine-protein kinase Sgk2 (Homo sapiens) (Q9HBY8 whole entry, the tested form may be a part): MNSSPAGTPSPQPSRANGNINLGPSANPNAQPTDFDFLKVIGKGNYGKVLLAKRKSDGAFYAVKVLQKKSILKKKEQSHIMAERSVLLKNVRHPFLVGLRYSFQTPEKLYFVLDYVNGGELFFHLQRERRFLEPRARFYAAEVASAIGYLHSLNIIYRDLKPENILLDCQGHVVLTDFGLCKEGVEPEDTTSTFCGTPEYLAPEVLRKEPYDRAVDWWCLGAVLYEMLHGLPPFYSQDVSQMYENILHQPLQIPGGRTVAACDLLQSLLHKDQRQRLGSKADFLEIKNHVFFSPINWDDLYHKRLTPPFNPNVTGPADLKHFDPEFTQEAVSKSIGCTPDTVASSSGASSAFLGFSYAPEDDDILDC
Sequence of Ribosomal protein S6 kinase beta-1 (Homo sapiens) (P23443 whole entry, looked up, the tested form may be a part): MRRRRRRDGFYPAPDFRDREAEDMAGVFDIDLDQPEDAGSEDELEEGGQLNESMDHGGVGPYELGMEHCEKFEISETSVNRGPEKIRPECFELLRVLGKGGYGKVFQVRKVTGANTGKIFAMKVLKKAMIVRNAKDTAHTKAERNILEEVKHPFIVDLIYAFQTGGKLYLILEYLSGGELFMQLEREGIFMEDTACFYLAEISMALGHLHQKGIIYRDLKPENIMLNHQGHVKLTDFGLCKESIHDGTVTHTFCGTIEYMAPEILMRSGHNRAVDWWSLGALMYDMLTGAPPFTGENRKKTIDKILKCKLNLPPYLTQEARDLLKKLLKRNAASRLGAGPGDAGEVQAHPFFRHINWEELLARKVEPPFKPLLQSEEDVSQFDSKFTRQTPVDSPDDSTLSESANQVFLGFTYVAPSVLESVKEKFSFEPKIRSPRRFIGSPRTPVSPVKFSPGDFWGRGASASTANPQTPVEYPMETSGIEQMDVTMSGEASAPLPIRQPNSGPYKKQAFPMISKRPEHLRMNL
Sequence of ALK tyrosine kinase receptor (Homo sapiens) (Q9UM73 19-1620 limits assumed): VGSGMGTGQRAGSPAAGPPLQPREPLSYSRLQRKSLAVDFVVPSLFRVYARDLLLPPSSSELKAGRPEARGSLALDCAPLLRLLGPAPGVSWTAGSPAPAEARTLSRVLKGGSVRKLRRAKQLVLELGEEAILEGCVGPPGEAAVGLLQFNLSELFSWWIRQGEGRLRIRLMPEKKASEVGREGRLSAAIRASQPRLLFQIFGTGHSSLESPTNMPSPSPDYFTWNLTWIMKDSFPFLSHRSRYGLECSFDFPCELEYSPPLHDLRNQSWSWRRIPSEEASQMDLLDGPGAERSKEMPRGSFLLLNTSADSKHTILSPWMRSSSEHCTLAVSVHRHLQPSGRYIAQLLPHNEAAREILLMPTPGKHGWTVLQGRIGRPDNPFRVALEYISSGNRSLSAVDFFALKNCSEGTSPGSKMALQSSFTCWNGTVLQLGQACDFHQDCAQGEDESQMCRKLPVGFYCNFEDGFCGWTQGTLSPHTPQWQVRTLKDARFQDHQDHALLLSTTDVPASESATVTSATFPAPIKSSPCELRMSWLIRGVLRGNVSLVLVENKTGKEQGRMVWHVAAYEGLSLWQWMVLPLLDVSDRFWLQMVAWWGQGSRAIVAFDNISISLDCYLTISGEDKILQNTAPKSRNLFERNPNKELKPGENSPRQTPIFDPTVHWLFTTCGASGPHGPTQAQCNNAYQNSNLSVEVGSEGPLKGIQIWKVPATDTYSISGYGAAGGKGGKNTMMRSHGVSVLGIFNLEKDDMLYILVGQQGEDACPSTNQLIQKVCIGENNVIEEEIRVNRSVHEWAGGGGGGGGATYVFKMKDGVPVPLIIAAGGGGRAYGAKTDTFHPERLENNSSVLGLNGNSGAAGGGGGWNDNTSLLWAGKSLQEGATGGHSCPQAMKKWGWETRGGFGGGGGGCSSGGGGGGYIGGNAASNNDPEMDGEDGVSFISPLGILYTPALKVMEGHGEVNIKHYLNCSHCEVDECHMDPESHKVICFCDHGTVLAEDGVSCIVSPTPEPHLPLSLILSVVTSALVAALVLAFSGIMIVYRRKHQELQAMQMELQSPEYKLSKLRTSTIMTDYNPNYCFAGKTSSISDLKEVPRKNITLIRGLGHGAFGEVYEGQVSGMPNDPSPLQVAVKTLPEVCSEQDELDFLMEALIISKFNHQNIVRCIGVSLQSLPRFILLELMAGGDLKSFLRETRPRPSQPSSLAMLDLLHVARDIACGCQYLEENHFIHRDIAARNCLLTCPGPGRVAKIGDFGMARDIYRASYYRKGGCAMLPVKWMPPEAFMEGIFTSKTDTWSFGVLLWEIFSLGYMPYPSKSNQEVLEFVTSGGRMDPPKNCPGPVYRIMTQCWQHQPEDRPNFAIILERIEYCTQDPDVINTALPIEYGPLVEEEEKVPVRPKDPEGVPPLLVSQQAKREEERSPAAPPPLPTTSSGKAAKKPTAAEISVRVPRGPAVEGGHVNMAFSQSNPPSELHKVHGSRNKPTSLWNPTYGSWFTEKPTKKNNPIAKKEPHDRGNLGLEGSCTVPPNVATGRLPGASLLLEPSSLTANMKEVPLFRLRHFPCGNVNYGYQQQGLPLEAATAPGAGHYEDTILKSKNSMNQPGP
Sequence of Serine/threonine-protein kinase haspin (Homo sapiens) (Q8TF76 whole entry, the tested form may be a part): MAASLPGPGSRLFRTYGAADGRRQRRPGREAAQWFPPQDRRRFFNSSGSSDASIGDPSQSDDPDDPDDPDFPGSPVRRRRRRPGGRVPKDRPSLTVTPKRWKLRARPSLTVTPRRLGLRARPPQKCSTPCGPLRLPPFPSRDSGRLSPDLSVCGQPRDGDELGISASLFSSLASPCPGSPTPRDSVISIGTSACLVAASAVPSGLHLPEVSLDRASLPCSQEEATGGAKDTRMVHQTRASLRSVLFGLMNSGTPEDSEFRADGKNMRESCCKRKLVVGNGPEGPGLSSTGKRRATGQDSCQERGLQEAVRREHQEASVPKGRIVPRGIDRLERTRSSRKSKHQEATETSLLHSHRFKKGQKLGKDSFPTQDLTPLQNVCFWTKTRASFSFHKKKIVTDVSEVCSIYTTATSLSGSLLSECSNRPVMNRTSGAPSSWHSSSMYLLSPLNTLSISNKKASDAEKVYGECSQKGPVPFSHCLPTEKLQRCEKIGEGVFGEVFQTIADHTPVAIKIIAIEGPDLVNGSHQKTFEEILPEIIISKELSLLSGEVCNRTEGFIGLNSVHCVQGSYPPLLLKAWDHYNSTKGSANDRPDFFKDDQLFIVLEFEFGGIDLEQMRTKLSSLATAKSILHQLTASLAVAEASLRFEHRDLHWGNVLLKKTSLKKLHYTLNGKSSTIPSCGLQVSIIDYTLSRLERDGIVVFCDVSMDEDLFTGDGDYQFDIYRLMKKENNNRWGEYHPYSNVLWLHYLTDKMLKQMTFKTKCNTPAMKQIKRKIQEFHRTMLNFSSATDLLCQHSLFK
Sequence of Casein kinase II subunit alpha (Homo sapiens) (P68400 whole entry, looked up, the tested form may be a part): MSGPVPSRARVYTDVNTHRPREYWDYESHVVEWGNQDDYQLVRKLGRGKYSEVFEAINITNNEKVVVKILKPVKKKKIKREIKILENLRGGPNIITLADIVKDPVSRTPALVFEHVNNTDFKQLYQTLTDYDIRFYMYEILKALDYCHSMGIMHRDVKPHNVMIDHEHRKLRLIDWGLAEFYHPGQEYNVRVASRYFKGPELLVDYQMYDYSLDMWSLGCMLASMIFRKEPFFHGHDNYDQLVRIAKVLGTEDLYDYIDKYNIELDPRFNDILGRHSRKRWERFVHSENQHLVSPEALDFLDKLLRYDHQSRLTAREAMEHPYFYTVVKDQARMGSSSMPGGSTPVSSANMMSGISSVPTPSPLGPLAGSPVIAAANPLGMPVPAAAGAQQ
Sequence of Ribosomal protein S6 kinase alpha-1 (Homo sapiens) (Q15418 whole entry, the tested form may be a part): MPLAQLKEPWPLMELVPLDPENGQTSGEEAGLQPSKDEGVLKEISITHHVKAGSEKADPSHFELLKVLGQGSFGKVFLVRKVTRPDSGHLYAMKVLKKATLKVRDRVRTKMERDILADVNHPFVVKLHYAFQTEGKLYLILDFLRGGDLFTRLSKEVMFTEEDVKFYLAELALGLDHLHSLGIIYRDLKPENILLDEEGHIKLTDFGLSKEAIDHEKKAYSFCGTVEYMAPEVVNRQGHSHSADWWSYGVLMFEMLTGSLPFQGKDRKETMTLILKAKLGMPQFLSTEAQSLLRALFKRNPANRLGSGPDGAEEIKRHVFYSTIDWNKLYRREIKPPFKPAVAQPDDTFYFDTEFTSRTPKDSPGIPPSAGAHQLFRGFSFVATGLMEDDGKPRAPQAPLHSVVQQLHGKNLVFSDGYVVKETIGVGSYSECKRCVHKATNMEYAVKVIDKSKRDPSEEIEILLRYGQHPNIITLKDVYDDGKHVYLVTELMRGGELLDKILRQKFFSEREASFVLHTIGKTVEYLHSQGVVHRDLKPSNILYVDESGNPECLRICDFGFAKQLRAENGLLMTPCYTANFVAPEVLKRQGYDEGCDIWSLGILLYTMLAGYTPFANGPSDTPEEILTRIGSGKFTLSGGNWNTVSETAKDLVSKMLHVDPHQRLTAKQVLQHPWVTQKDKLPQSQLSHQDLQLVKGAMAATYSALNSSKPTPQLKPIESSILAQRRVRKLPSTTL
Sequence of Mitogen-activated protein kinase 14 (Homo sapiens) (Q16539 whole entry, the tested form may be a part): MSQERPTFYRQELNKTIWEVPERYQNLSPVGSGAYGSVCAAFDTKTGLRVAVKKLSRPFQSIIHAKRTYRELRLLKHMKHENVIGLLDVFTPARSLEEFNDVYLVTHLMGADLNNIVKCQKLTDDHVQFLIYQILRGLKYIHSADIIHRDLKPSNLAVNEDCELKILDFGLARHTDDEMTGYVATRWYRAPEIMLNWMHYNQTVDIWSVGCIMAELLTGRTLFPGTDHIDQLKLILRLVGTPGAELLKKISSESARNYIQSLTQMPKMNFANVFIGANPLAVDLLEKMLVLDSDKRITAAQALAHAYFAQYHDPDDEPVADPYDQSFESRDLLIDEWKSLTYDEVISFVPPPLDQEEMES

## CCOc1nc(Nc2ccc(C(=O)N3CCOCC3)cc2OC)nc2[nH]ccc12
[1]
  Activity: 104%
[2]
  Activity: 89.4%
[3]
  Activity: 7.52%
[4]
  Activity: 91.4%
[5]
  Activity: 93.8%
[6]
  Activity: 80.2%
[7]
  Activity: 79.9%
[8]
  Activity: 87.8%
[9]
  Activity: 89.5%
[10]
  Activity: 40.5%
[11]
  Activity: 100%
[12]
  Activity: 80.4%
[13]
  Activity: 96.1%
[14]
  Activity: 99.9%
[15]
  Activity: 104%
[16]
  Activity: 100%
[17]
  Activity: 101%
[18]
  Activity: 87.1%
[19]
  Activity: 88.7%
[20]
  Activity: 92.5%
[21]
  Activity: 20.9%
[22]
  Activity: 106%
[23]
  Activity: 83.3%
